Experimental findings from ChEMBL document CHEMBL4152341, “Small Molecules Simultaneously Inhibiting p53-Murine Double Minute 2 (MDM2) Interaction and Histone Deacetylases (HDACs): Discovery of Novel Multitargeting Antitumor Agents” (J Med Chem, 2018) are described below.

pIC50, pKi: −log10 of the molar value. Where only a bound is given, the exact number is not on record here.

In one experiment the test system is HCT-116. Kind of experiment: Antiproliferative activity against human HCT116 cells after 72 hrs by CCK8 assay. Format: functional, cell-based. The note with it: HCT-116, 72 h.
Another experiment deals with Histone deacetylase 1 (Homo sapiens, UniProt Q13547). Kind of experiment: Inhibition of human recombinant full length HDAC1 using fluorogenic substrate 3 after 30 mins by fluorescence assay.
Experiment [1] deals with E3 ubiquitin-protein ligase Mdm2 (Homo sapiens, UniProt Q00987). Kind of experiment: Inhibition of MDM2 (unknown origin) preincubated for 30 mins by fluorescence polarization assay.
Experiment [2] relates to A549. Put plainly: Antiproliferative activity against human A549 cells after 72 hrs by CCK8 assay. It is filed as functional, cell-based. Particulars: A549, 72 h. (Formazan colour is commonly taken as a measure of viable cells.)
A further experiment relates to NCI-H1299. Kind of experiment: Antiproliferative activity against human NCI-H1299 cells after 72 hrs by CCK8 assay. Particulars: NCI-H1299, 72 h. Format: functional, cell-based.
The test system of another experiment is MCF7. Kind of experiment: cells. The note with it: Homo sapiens, MCF7, 72 h.
Experiment [3] relates to A549. Put plainly: animal or person. Format: functional, Homo sapiens. The note with it: Mus musculus, A549, po, read-out: TGI.
For experiment [4], the system named is A549. Kind of experiment: cells. The note with it: Homo sapiens, A549, 48 h, read-out: Activity.
Experiment [5] concerns A549. Kind of experiment: cells. The note with it: Homo sapiens, A549, 48 h, read-out: Activity. This is another data set of the same source.

Chain of Histone deacetylase 1 (Q13547 whole entry): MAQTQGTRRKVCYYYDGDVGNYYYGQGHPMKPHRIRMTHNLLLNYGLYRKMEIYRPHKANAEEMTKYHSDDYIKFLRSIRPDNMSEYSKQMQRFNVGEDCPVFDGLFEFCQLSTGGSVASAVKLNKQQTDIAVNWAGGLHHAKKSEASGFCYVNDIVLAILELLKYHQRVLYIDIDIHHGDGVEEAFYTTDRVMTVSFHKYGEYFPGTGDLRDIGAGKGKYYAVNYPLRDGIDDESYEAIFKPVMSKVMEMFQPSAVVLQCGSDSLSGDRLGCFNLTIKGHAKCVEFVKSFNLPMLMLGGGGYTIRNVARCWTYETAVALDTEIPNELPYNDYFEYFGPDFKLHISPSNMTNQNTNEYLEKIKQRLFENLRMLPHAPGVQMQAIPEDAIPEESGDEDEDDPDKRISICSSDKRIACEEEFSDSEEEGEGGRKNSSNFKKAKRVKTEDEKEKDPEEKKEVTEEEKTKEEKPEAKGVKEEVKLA
Chain of E3 ubiquitin-protein ligase Mdm2 (Q00987 whole entry): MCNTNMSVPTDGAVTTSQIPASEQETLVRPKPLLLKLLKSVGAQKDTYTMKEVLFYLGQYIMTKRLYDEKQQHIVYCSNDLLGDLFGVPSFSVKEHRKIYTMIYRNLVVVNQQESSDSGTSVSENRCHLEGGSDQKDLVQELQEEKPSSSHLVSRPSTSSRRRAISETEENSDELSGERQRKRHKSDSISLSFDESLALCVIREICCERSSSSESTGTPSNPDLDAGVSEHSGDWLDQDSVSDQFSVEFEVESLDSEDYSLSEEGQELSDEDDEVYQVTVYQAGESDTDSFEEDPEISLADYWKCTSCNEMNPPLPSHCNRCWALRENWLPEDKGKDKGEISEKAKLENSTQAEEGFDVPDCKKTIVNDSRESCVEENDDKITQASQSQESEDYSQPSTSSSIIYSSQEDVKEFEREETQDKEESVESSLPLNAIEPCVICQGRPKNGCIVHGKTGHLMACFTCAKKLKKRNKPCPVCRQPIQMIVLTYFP
Description for MCF7: Antiproliferative activity against human MCF7 cells after 72 hrs by CCK8 assay

Usually pIC50 stands for the IC50 on a negative log10 scale, so that one unit is a factor of ten. By pKi is commonly meant −log10 of the Ki, conventionally taken in molar units. Low readings indicate a large Ki, high ones a small Ki. As for `CCOc1cc(C(C)(C)C)ccc1C1=NC(c2ccc(Cl)cc2)C(c2ccc(Cl)cc2)N1C(=O)N1CCN(CCCCC(=O)NO)CC1` (configuration not stated), the pIC50 in the experiment with HCT-116 is 5.28; on Histone deacetylase 1, 6.01; with A549 [2] it was 5.42; in the experiment on NCI-H1299 it was 4.89; in the experiment on MCF7, 5.01. In experiment [1], this compound gave a pKi of 6.77.
For the compound `CCOc1cc(C(C)(C)C)ccc1C1=NC(c2ccc(Cl)cc2)C(c2ccc(Cl)cc2)N1C(=O)N1CCC(Nc2ncc(C(=O)NO)cn2)CC1` (configuration not stated), the pIC50 in the experiment on HCT-116 was 5.49; at Histone deacetylase 1 it was 6.00; with A549 [2], 5.51; in the experiment on NCI-H1299, 5.10; in the experiment with MCF7 it was 5.57. In experiment [1], this compound gave a pKi of 6.34.
In the case of `CCOc1cc(C(C)(C)C)ccc1C1=NC(c2ccc(Cl)cc2)C(c2ccc(Cl)cc2)N1C(=O)NCCCCCC(=O)Nc1ccccc1N` (configuration not stated), the pIC50 in the experiment on HCT-116 was 4.66; on Histone deacetylase 1 it was less than 4.70; in the experiment on A549 [2], 4.69; in the experiment on NCI-H1299, 4.72; with MCF7, less than 4.00. This compound gave a pKi in experiment [1] of 5.84.
For the compound `COc1ccc(C2=N[C@@H](c3ccc(Cl)cc3)[C@@H](c3ccc(Cl)cc3)N2C(=O)N2CCNC(=O)C2)c(OC(C)C)c1` [NUTLIN-3], the pIC50 was 5.00 to 5.04 in the experiment on HCT-116; less than 4.00 on Histone deacetylase 1; 4.93 to 5.02 in the experiment on A549 [2]; 4.70 in the experiment on NCI-H1299; 5.07 in the experiment on MCF7. Moreover, in the experiment on A549 [3], the inhibition in vivo at 100 mg/kg was 44%. In addition, the viability at 1 µM in the experiment on A549 [4] turned out to be 89.8%. In the experiment on A549 [5], the viability at 5 µM amounted to 83.3%.
`CC(=O)Nc1ccc(C(=O)Nc2ccccc2N)cc1` [TACEDINALINE]: the pIC50 with HCT-116 is 5.01; in the experiment on A549 [2], 4.99; in the experiment on NCI-H1299, 5.17; in the experiment on MCF7, 4.88.
Take `CCOc1cc(C(C)(C)C)ccc1C1=NC(c2ccc(Cl)cc2)C(c2ccc(Cl)cc2)N1C(=O)N1CCC(C(=O)NO)CC1` (configuration not stated): the pIC50 with HCT-116 was 5.03; on Histone deacetylase 1, 5.01; with A549 [2], 5.52; in the experiment on NCI-H1299, 5.01; in the experiment with MCF7 it was 5.00. For the same compound, the pKi in experiment [1] is 7.24.
As to `CCOc1cc(C(C)(C)C)ccc1C1=NC(c2ccc(Cl)cc2)C(c2ccc(Cl)cc2)N1C(=O)NCCCCCCC(=O)NO` (configuration not stated), the pIC50 was 5.15 with HCT-116; 6.05 on Histone deacetylase 1; 5.22 with A549 [2]; 5.12 in the experiment on NCI-H1299; 5.14 in the experiment with MCF7. The compound also had a pKi in experiment [1] of 6.49.
As for `CCOc1cc(C(C)(C)C)ccc1C1=NC(c2ccc(Cl)cc2)C(c2ccc(Cl)cc2)N1C(=O)NCc1ccc(C(=O)NO)cc1` (configuration not stated), the pIC50 was 5.04 in the experiment on HCT-116; 5.43 on Histone deacetylase 1; 5.12 in the experiment with A549 [2]; 5.11 in the experiment on NCI-H1299; 4.88 in the experiment on MCF7. Moreover, in [1], the negative-log Ki (pKi) was 6.24.
As to `CCOc1cc(C(C)(C)C)ccc1C1=NC(c2ccc(Cl)cc2)C(c2ccc(Cl)cc2)N1C(=O)N1CCN(Cc2ccc(C(=O)NO)cc2)CC1` (configuration not stated), the pIC50 with HCT-116 is 5.69; on Histone deacetylase 1, 5.45; in the experiment with A549 [2] it was 5.66; in the experiment with NCI-H1299, 5.52; in the experiment with MCF7, 5.40. The same compound gave a pKi in experiment [1] of 6.59.
For the compound `CCOc1cc(C(C)(C)C)ccc1C1=NC(c2ccc(Cl)cc2)C(c2ccc(Cl)cc2)N1C(=O)NCCCCCCC(=O)Nc1ccccc1N` (configuration not stated), the pIC50 in the experiment with HCT-116 is 4.99; on Histone deacetylase 1, 5.22; with A549 [2], 4.80; in the experiment with NCI-H1299, 4.76; with MCF7, less than 4.00. This compound had a pKi in experiment [1] of 6.21.
`O=C(CCCCCCC(=O)Nc1ccccc1)NO` [VORINOSTAT]: the pKi in experiment [1] is less than 4.70. The compound also showed a pIC50 in the experiment with NCI-H1299 of 5.31.
Regarding `CCOc1cc(C(C)(C)C)ccc1C1=NC(c2ccc(Cl)cc2)C(c2ccc(Cl)cc2)N1C(=O)N1CCN(CCCCCC(=O)NO)CC1` (configuration not stated), the pIC50 is 5.39 with HCT-116; 6.01 on Histone deacetylase 1; 5.54 in the experiment on A549 [2]; 5.03 in the experiment with NCI-H1299; 5.14 in the experiment with MCF7. The compound further showed a pKi in experiment [1] of 6.77.
Regarding `CCOc1cc(C(C)(C)C)ccc1C1=NC(c2ccc(Cl)cc2)C(c2ccc(Cl)cc2)N1C(=O)NCCCCC(=O)Nc1ccccc1N` (configuration not stated), the pIC50 with HCT-116 is 4.86; at Histone deacetylase 1, less than 4.70; in the experiment with A549 [2] it was 4.74; in the experiment on NCI-H1299, 4.81; in the experiment with MCF7, 4.54. The compound further gave a pKi in experiment [1] of 6.02.
Turning to `CCOc1cc(C(C)(C)C)ccc1C1=NC(c2ccc(Cl)cc2)C(c2ccc(Cl)cc2)N1C(=O)N1CCN(c2ncc(C(=O)NO)cn2)CC1` (configuration not stated), the pIC50 with HCT-116 is 6.01; on Histone deacetylase 1, 6.51; with A549 [2], 5.71; with NCI-H1299, 5.26; in the experiment on MCF7 it was 5.46. Besides, in experiment [1], the pKi is 5.98.
As for `CCOc1cc(C(C)(C)C)ccc1C1=NC(c2ccc(Cl)cc2)C(c2ccc(Cl)cc2)N1C(=O)NCCCCCC(=O)NO` (configuration not stated), the pIC50 in the experiment on HCT-116 was 5.15; at Histone deacetylase 1 it was 5.95; in the experiment on A549 [2], 5.24; in the experiment with NCI-H1299, 4.98; with MCF7, 4.98. This compound had a pKi in experiment [1] of 6.55.
For `CCOc1cc(C(C)(C)C)ccc1C1=NC(c2ccc(Cl)cc2)C(c2ccc(Cl)cc2)N1C(=O)NCCCCCCCC(=O)Nc1ccccc1N` (configuration not stated), the pIC50 in the experiment with HCT-116 was 5.00; at Histone deacetylase 1, 5.44; with A549 [2], 4.82; with NCI-H1299, 4.71; in the experiment on MCF7 it was 4.69. Further, the pKi in experiment [1] is 5.99.
For `CCOc1cc(C(C)(C)C)ccc1C1=NC(c2ccc(Cl)cc2)C(c2ccc(Cl)cc2)N1C(=O)N1CCN(CCCCCCCC(=O)NO)CC1` (configuration not stated), the pIC50 with HCT-116 was 5.77; on Histone deacetylase 1 it was 6.39; in the experiment on A549 [2], 5.70; in the experiment with NCI-H1299 it was 5.11; in the experiment with MCF7, 5.32. This compound showed a pKi in experiment [1] of 6.54.
`CCOc1cc(C(C)(C)C)ccc1C1=NC(c2ccc(Cl)cc2)C(c2ccc(Cl)cc2)N1C(=O)N1CCC(C(=O)Nc2ccc(/C=C/C(=O)NO)cc2)CC1` (configuration not stated): the pIC50 was 5.02 in the experiment with HCT-116; 6.01 at Histone deacetylase 1; 5.12 in the experiment with A549 [2]; 5.03 with NCI-H1299; 5.14 with MCF7. Besides, the pKi in [1] was 5.58.
`CCOc1cc(C(C)(C)C)ccc1C1=NC(c2ccc(Cl)cc2)C(c2ccc(Cl)cc2)N1C(=O)N1CCN(CC(=O)NO)CC1` (configuration not stated): the pIC50 was 5.23 with HCT-116; 5.38 at Histone deacetylase 1; 5.36 with A549 [2]; 4.94 with NCI-H1299; 4.93 in the experiment on MCF7. Moreover, the pKi in [1] is 7.15.
As for `CCOc1cc(C(C)(C)C)ccc1C1=NC(c2ccc(Cl)cc2)C(c2ccc(Cl)cc2)N1C(=O)NCCCCCCCC(=O)NO` (configuration not stated), the pIC50 in the experiment on HCT-116 is 5.30; on Histone deacetylase 1, 6.57; in the experiment with A549 [2] it was 5.31; in the experiment on NCI-H1299 it was 5.04; in the experiment with MCF7, 5.10. Besides, in experiment [1], the pKi is 6.47.
In the case of `CCOc1cc(C(C)(C)C)ccc1C1=NC(c2ccc(Cl)cc2)C(c2ccc(Cl)cc2)N1C(=O)NCCCCC(=O)NO` (configuration not stated), the pIC50 was 4.97 in the experiment on HCT-116; 5.53 on Histone deacetylase 1; 5.03 in the experiment on A549 [2]; 4.79 in the experiment on NCI-H1299; 4.89 in the experiment on MCF7. The compound also showed a pKi in [1] of 6.48.
